Laboratory results taken from ChEMBL document CHEMBL3864159, “Variation of the aryl substituent on the piperazine ring within the 4-(piperazin-1-yl)-2,6-di(pyrrolidin-1-yl)pyrimidine scaffold unveils potent, non-competitive inhibitors of the inflammatory caspases” (Bioorg Med Chem Lett, 2016).
The source made the active and inactive calls. The calls are words filed in the database; no cut-off is given here.

Tests used:
[1] = target: T1, Cathepsin K (Homo sapiens) (UniProt P43235); test: Inhibition of human recombinant cathepsin-K at 5 uM preincubated for 10 mins followed by Z-FR-AMC substrate addition by fluorescence assay
T1 sequence (whole entry): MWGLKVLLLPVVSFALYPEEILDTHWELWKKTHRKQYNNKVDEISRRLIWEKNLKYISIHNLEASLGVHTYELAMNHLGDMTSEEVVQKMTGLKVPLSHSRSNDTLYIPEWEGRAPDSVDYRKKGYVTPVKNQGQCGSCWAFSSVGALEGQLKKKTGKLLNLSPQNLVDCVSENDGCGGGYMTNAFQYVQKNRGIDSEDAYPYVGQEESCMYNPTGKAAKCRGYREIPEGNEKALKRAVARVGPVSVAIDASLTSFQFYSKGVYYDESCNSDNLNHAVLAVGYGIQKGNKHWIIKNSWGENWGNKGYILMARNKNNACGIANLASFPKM

[2] = target: T2, Calpain-1 catalytic subunit (Homo sapiens) (UniProt P07384); test: Inhibition of full-length human calpain-1 at 5 uM preincubated for 10 mins followed by Suc-LLVY-AMC substrate addition by fluorescence assay relative to control
T2 sequence (whole entry): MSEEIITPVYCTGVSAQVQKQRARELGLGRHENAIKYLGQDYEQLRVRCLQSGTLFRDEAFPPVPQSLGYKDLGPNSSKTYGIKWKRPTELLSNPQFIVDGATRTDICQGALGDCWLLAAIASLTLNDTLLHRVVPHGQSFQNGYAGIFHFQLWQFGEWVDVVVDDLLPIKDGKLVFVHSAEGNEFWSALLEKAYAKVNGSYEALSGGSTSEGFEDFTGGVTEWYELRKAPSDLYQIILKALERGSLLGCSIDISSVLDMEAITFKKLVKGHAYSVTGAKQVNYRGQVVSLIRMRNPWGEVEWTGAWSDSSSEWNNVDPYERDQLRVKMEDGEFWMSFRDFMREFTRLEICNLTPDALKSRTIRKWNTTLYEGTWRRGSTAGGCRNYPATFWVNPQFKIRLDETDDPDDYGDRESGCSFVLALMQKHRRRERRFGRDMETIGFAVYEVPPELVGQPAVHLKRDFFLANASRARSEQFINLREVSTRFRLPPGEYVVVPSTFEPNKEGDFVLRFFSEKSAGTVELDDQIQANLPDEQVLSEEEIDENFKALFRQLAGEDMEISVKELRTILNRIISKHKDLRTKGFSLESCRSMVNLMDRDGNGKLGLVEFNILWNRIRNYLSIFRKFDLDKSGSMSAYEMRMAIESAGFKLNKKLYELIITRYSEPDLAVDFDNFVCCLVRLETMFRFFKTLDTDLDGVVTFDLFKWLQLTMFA

Papain (Carica papaya) = target: T3, Papain (Carica papaya) (UniProt P00784); test: Inhibition of papaya papain at 5 uM preincubated for 10 mins followed by Suc-LLVY-AMC substrate addition by fluorescence assay relative to control
T3 sequence (whole entry): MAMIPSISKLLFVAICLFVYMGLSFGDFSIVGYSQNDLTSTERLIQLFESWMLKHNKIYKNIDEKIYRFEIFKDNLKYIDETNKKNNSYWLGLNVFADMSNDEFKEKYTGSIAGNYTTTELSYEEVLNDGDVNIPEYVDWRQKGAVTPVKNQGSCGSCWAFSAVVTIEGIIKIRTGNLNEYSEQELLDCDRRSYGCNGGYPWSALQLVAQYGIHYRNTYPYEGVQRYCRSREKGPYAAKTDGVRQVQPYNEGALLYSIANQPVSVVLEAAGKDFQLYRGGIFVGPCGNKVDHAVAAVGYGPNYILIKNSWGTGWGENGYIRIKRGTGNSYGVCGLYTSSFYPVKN

Homo sapiens [3] = species on record: Homo sapiens; test: Selectivity ratio of Ki for human recombinant N-terminal His-tagged DTT-activated caspase-4 expressed in Escherichia coli to Ki for human recombinant DTT-activated caspase-5 expressed in Escherichia coli
Homo sapiens [4] = species on record: Homo sapiens; test: Selectivity ratio of Ki for human recombinant N-terminal His-tagged DTT-activated caspase-1 expressed in Escherichia coli to Ki for human recombinant DTT-activated caspase-5 expressed in Escherichia coli
[5] = target: Cathepsin B (Homo sapiens) (UniProt P07858); test: Inhibition of human recombinant cathepsin-B at 5 uM preincubated for 10 mins followed by Z-FR-AMC substrate addition by fluorescence assay
[6] = target: T1, Cathepsin K (Homo sapiens); test: Inhibition of human recombinant cathepsin-K assessed as residual activity at 5 uM preincubated for 10 mins followed by Z-FR-AMC substrate addition by fluorescence assay relative to control
Caspase-1 (Homo sapiens) = target: T4, Caspase-1 (Homo sapiens) (UniProt P29466); test: Non-competitive inhibition of human recombinant N-terminal His-tagged DTT-activated caspase-1 expressed in Escherichia coli using 5 to 50 uM Ac-WEHD-AMC as substrate preincubated for 30 mins followed by substrate addition by Michaelis-Menten plot analysis
T4 sequence (whole entry): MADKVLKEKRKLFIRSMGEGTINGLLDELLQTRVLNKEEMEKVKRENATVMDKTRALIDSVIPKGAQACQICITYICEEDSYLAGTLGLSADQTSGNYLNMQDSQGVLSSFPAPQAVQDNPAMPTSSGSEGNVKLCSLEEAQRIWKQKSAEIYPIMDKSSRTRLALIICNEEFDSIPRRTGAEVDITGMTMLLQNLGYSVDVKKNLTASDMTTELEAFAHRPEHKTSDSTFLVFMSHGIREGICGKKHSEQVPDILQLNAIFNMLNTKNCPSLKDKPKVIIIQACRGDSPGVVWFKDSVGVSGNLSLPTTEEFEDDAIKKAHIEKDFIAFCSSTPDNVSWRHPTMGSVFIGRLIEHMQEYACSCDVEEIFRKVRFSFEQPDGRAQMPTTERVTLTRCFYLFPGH

Homo sapiens [7] = species on record: Homo sapiens; test: Selectivity ratio of Ki for human recombinant DTT-activated caspase-5 expressed in Escherichia coli to Ki for human recombinant N-terminal His-tagged DTT-activated caspase-4 expressed in Escherichia coli
Homo sapiens [8] = species on record: Homo sapiens; test: Selectivity ratio of Ki for human recombinant N-terminal His-tagged DTT-activated caspase-1 expressed in Escherichia coli to Ki for human recombinant N-terminal His-tagged DTT-activated caspase-4 expressed in Escherichia coli

inhibition [1]	inhibition [2]	inhibition (Papain (Carica papaya))	Ratio Ki (Homo sapiens [3])	Ratio Ki (Homo sapiens [4])	inhibition [5]	Activity [6]	inhibition (Caspase-1 (Homo sapiens))	Ratio Ki (Homo sapiens [7])	Ratio Ki (Homo sapiens [8])	Compound
Active	Active	Active	10	10	Active					c1cncc(CN2CCN(c3cc(N4CCCC4)nc(N4CCCC4)n3)CC2)c1
			10	10						c1cc(CN2CCN(c3cc(N4CCCC4)nc(N4CCCC4)n3)CC2)ccn1

Second part, the molecule before the results:

Compound	inhibition [1]	inhibition [2]	inhibition (Papain (Carica papaya))	Ratio Ki (Homo sapiens [3])	Ratio Ki (Homo sapiens [4])	inhibition [5]	Activity [6]	inhibition (Caspase-1 (Homo sapiens))	Ratio Ki (Homo sapiens [7])	Ratio Ki (Homo sapiens [8])
O=[N+]([O-])c1ccc(CN2CCN(c3cc(N4CCCC4)nc(N4CCCC4)n3)CC2)cc1				10	10					
COc1cccc(CN2CCN(c3cc(N4CCCC4)nc(N4CCCC4)n3)CC2)c1		Active	Active			Active	78%			
c1ccc(CCN2CCN(c3cc(N4CCCC4)nc(N4CCCC4)n3)CC2)cc1	Active	Active	Active			Active		Active	2	2
